Data set [1] concerns MPTP mouse model of PD. As to the kind of experiment: Aminoindan in MPTP mouse model of PD, striatal dopamine by HPLC. In kind it is in vivo. Particulars: MPTP mice; SR by ALZET pump for 12 days, compared with vehicle or daily IP injection of same drug. As for the experimental part:
(§1) Striatum tissue samples were homogenized in ice in 500 μl homogenization buffer (0.1M perchloric acid, 0.02% EDTA and 1% ETOH) using OMNI Tip homogenizing kit of OMNI International (intermediate speed, 3×10 seconds with 5 seconds intervals). The homogenates were sonicated for 5 min and were then centrifuged at 15,000 rpm at 4° C. for 15 min. The supernatants were transferred into fresh tubes and dopamine content was analyzed by HPLC.
Male C57B1/6 mice weighing 20+/−1 g were used in all experiments (10 mice per group). MPTP was administrated by IP injection at a dose of 40 mg/Kg per day for 5 days. Controls were naïve untreated mice injected with saline, and MPTP-treated mice injected with saline. Aminoindan was applied for 12 days either by daily IP injection or by sustained release using an ALZET pump implanted IP. The effect of the treatments was assessed by measurement of dopamine and its metabolites (dihydroxyphenylacetic acid and homovanillic acid) in left and right striatum taken from the mice at the end of the experiment. Striatum tissue samples were prepared for HPLC as described in Experimental.

In a further data set the test system is 6-OHDA rat model of PD. The settings on record: 6-OHDA rats; SR by ALZET pump 28 days compared with daily IP injections; amphetamine 1.5 mg/kg IP, 60 min recording.
For data set [2], the system named is MPTP mouse model of PD. As to the kind of experiment: Rasagiline-pramipexole combinations in MPTP mouse model of PD, striatal dopamine by HPLC. In kind it is in vivo. The settings on record: for dopamine levels compared to naïve mice: sustained release over 24 hours.
Text: A significant body of biochemical data from human brain autopsy studies and those from animal models point to an ongoing process of oxidative stress in the substantia nigra which could initiate dopaminergic neurodegeneration.
MPTP is converted in the brain into the positively charged molecule MPP^+ (1-methyl-4-phenylpyridinium) by the enzyme monoamine oxidase (MAO)-B, causing parkinsonism in primates by killing certain dopamine-producing neurons in the substantia nigra. MPP^+ acts by interfering with oxidative phosphorylation in mitochondria, causing depletion of ATP and cell death.
as §1
The study included 10 groups of about 7-9 mice each, which were treated according to Table 1. […] MPTP was daily injected, during the initial 5 days (days 0-4), and the drug combinations were administered on days 0-11, either IP or using ALZET pump (ALZET micro-osmotic pump, model 1002 with a rate of 0.25 μl/hr, DURECT Corporation, Cupertino, USA) to simulate sustained release. Groups 5-7 were administered with the drug combination 30 min before MPTP application, daily during the initial five days (day 0-4), and on the following days (5-11) drugs are administrated approximately at the same time each dosing day. The ALZET pump was intraperitonealy implanted 15-17 hours before first MPTP administration (groups 8-10), and the total amount of drugs applied by the pump during the dosing period was identical to that given to the IP-injected groups. Controls were naïve untreated mice injected with saline, and MPTP-administered mice injected with saline.
Body weight was measured prior to dosing and every day during the dosing, and individual body weight changes were calculated. Clinical signs were recorded twice weekly throughout the entire study. At study termination day 12, all animals were euthanatized via CO2 asphyxiation. The brain was rapidly removed, placed on a refrigerated plate and dissected. The left and right striatum were removed, weighted, snap-frozen in liquid nitrogen, and stored in −70° C. until further processing. Striatum tissue samples were prepared for HPLC as described in Experimental.

The conditions of data set [3]: rat, in vivo, 1.5 mg/kg. As for the experimental part: The cannulas were placed either in the colon, duodenum and jugular vein for colonic bolus, duodenal bolus and intravenous bolus administration, respectively. A single bolus dose administration to each compartment was done. In addition, a second indwelling cannula was placed in the right vein of each animal for systemic blood sampling. Blood samples (0.5 ml) were taken at 5 minutes pre-dose, 5, 15, 30, 50, 90, 150 and 200 minutes post-dose. To prevent dehydration, equal volumes of physiological solution were administrated to the rats following each withdrawal of blood sample. […] Non-compartmental pharmacokinetic analysis was performed using Excel software. The area under the curve (AUC) was calculated by non-compartmental analysis to the final measurable sample using the linear-log trapezoid method.

Text for 6-OHDA rat model of PD: Since in PD it is mainly the dopaminergic nigrostriatal pathway that is subject to degeneration, animal models have been developed in which 6-OHDA lesions of the dopaminergic system were made by unilateral injection of the toxin directly into major efferent projection of the nigrostriatal bundle.
Unilaterally lesioning of the Medial Forebrain Bundle (MFB) by 6-OHDA causes unilaterally destruction of the dopaminergic neurons of the nigrostriatal pathway leading to asymmetry in motor behavior of rats. […] More specifically, administration of the DA-releasing agent D-amphetamine creates a dopamine imbalance that favors the nonlesioned nigrostriatal projection and thus produces clockwise rotations. […] Drug-induced rotations are measured using an automated rotometer consisting of a rotation bowl and a swivel attached to the torso of the rat.
Male adult Sprague-Dawley rats weighing 250-300 g were lesioned with 6-OHDA in the middle forebrain bundle (MFB). Rats were anesthetized with Ketamine-Xylazine (85:15) 0.1 ml/100 g and mounted in the stereotaxic apparatus. 6-OHDA was injected into unilateral MFB according to the following stereotaxic coordinates: AP-2.8 mm, ML-2 mm relatively to the bregma, and DV-9 relatively from the Dura. The injection rate was 1 μl/min using an injection pump and Hamilton micro-syringe. […]

With `NC1CCc2ccccc21` (centres unmarked) [aminoindan, 1-aminoindan], the brain dopamine levels entry in the data set with MPTP mouse model of PD [1] is recorded as “significant restoration of dopamine levels”.

`C#CCN[C@@H]1CCc2ccccc21` [rasagiline, R(+)—N-propargyl-1-aminoindan]: in the data set with 6-OHDA rat model of PD, the “amphetamine-induced net rotation (CW-CCW)” value is “significantly improved effect in net rotation”. The “dopamine content compared to naïve mice” value in the data set with MPTP mouse model of PD [2] (acute administration, rasagiline 0.1, 0.12 or 0.15 mg/kg (similar effect)) is “around 60%”. Moreover, the “dopamine levels compared to naïve mice” value in the data set with MPTP mouse model of PD [2] (rasagiline 0.1 mg/kg) was found to be 57%. Further, the “dopamine levels compared to naïve mice” value with MPTP mouse model of PD [2] (rasagiline 0.12 mg/kg) is given as 74%. For the same molecule, the “dopamine levels compared to naïve mice” value in the data set with MPTP mouse model of PD [2] (rasagiline 0.15 mg/kg) is on record as 88%. Further, the “F (% of IV dose)” value in data set [3] was approximately 100%. Besides, in data set [3] (iv), the AUC was 23,641 ± 3,481 hr * ng/ml, the CL stood at 54.3 ± 7.1 mL/min/kg, the T1/2 stood at 42.7 ± 5.5 min and the Vss was 2,404 ± 408 ml/Kg.

The record behind these values is patent US9943489B2 (PHARMATWOB LTD., priority 2010, dated 2018).
